# Results: patent US11958835B1, “6-(6-bromo-2-oxo-2H-chromen-3-yl)-4-(4-chlorophenyl)-2-alkoxynicotinonitrile as antimicrobial agents” (KING FAISAL UNIVERSITY, priority 2023, dated 2024)
# Assays:
# Type in all cases: cell-based
# [1] = system: Pseudomonas aeruginosa; assay: agar plate disc-diffusion, antibacterial, Pseudomonas aeruginosa; settings: DMSO control zone subtracted; for inhibition zone, Pseudomonas aeruginosa, A: A = concentration of comp. = 10,000 μL; for inhibition zone, Pseudomonas aeruginosa, B: B = concentration of comp. = 30.000 μL; for inhibition zone, Pseudomonas aeruginosa, C: C = concentration of comp. = 50,000 μL
# Experimental: (§1) The agar plate disc-diffusion method was applied. Sterilized filter papers (6 mm in diameter) were wetted with 10 μL of a solution of 6-(6-bromo-2-oxo-2H-chromen-3-yl)-4-(4-chlorophenyl)-2-ethoxynicotinonitrile (1) and 6-(6-bromo-2-oxo-2H-chromen-3-yl)-4-(4-chlorophenyl)-2-methoxynicotinonitrile (2) to be tested, containing […], and the discs were allowed to air dry. The discs were then placed onto the surface of agar plates (nutrient agar for bacteria and Sabouraud's dextrose agar for fungi) seeded with the test organism. Each plate contained 15 mL of the agar medium, previously seeded with 0.2 mL of the broth culture of each organism pregrown for 18 hours. The plates were incubated at 37° C. for 48 hours, and 72 hours for fungi. The inhibition zones were measured in millimeters. Discs impregnated with DMSO were used as a control, and its inhibition zone was subtracted from the tested compound actual inhibition zone.
# (§2) Their antibacterial screened against gram positive bacteria namely Bacillus cereus and Staphylococcus aureus and gram-negative bacterial strains namely Pseudomonas aeruginosa and Escherichia coli, while their antifungal activity screened against Aspergillus flavus and Chrysosporium keratinophilum as shown in Tables 1 and 2 using ciprofloxacin as a reference.
# [2] = system: Chrysosporium keratinophilum; assay: agar plate disc-diffusion, antifungal, Chrysosporium keratinophilum; settings: DMSO control zone subtracted; for inhibition zone, Chrysosporiam keratinophilum, A: A = concentration of comp. = 10,000 μL; for inhibition zone, Chrysosporiam keratinophilum, B: B = concentration of comp. = 30.000 μL; for inhibition zone, Chrysosporiam keratinophilum, C: C = concentration of comp. = 50,000 μL
# Experimental: as §1, §2
# [3] = system: Aspergillus flavus; assay: agar plate disc-diffusion, antifungal, Aspergillus flavus; settings: DMSO control zone subtracted; for inhibition zone, Aspergillus flavus, A: A = concentration of comp. = 10,000 μL; for inhibition zone, Aspergillus flavus, B: B = concentration of comp. = 30.000 μL; for inhibition zone, Aspergillus flavus, C: C = concentration of comp. = 50,000 μL
# Experimental: as §1, §2
# [4] = system: Bacillus cereus; assay: agar plate disc-diffusion, antibacterial, Bacillus cereus; settings: DMSO control zone subtracted; for inhibition zone, Bacillus Cereus, A: A = concentration of comp. = 10,000 μL; for inhibition zone, Bacillus Cereus, B: B = concentration of comp. = 30.000 μL; for inhibition zone, Bacillus Cereus, C: C = concentration of comp. = 50,000 μL
# Experimental: as §1, §2
# [5] = system: Staphylococcus aureus; assay: agar plate disc-diffusion, antibacterial, Staphylococcus aureus; settings: DMSO control zone subtracted; for inhibition zone, Staphylococcus aureus, A: A = concentration of comp. = 10,000 μL; for inhibition zone, Staphylococcus aureus, B: B = concentration of comp. = 30.000 μL; for inhibition zone, Staphylococcus aureus, C: C = concentration of comp. = 50,000 μL
# Experimental: as §1, §2
# [6] = system: Escherichia coli; assay: agar plate disc-diffusion, antibacterial, Escherichia coli; settings: DMSO control zone subtracted; for inhibition zone, Escherichia coli, A: A = concentration of comp. = 10,000 μL; for inhibition zone, Escherichia coli, B: B = concentration of comp. = 30.000 μL; for inhibition zone, Escherichia coli, C: C = concentration of comp. = 50,000 μL
# Experimental: as §1, §2
Compound,"inhibition zone, Pseudomonas aeruginosa, A [1] [millimeters]","inhibition zone, Pseudomonas aeruginosa, B [1] [millimeters]","inhibition zone, Pseudomonas aeruginosa, C [1] [millimeters]","inhibition zone, Chrysosporiam keratinophilum, A [2] [millimeters]","inhibition zone, Chrysosporiam keratinophilum, B [2] [millimeters]","inhibition zone, Chrysosporiam keratinophilum, C [2] [millimeters]","inhibition zone, Aspergillus flavus, A [3] [millimeters]","inhibition zone, Aspergillus flavus, B [3] [millimeters]","inhibition zone, Aspergillus flavus, C [3] [millimeters]","inhibition zone, Bacillus Cereus, A [4] [millimeters]","inhibition zone, Bacillus Cereus, B [4] [millimeters]","inhibition zone, Bacillus Cereus, C [4] [millimeters]","inhibition zone, Staphylococcus aureus, A [5] [millimeters]","inhibition zone, Staphylococcus aureus, B [5] [millimeters]","inhibition zone, Staphylococcus aureus, C [5] [millimeters]","inhibition zone, Escherichia coli, A [6] [millimeters]","inhibition zone, Escherichia coli, B [6] [millimeters]","inhibition zone, Escherichia coli, C [6] [millimeters]"
"O=C(O)c1cn(C2CC2)c2cc(N3CCNCC3)c(F)cc2c1=O [Cip., ciprofloxacin, reference compound]",29,30,53,29,30,53,29,30,42,29,30,42,43,44,53,30,39,60
"CCOc1nc(-c2cc3cc(Br)ccc3oc2=O)cc(-c2ccc(Cl)cc2)c1C#N [Compound 1, 6-(6-bromo-2-oxo-2H-chromen-3-yl)-4-(4-chlorophenyl)-2-ethoxynicotinonitrile]",21,26,37,24,27,39,20,25,34,15,20,29,18,22,27,27,37,45
"COc1nc(-c2cc3cc(Br)ccc3oc2=O)cc(-c2ccc(Cl)cc2)c1C#N [Compound 2, 6-(6-bromo-2-oxo-2H-chromen-3-yl)-4-(4-chlorophenyl)-2-methoxynicotinonitrile]",25,31,35,25,29,40,19,23,33,25,27,35,17,23,29,27,34,48
